Earlier results, collected in US10898452B2, “Stable formulation for parenteral administration of Tapentadol” (Gruenenthal GmbH, priority 2016, dated 2021).

Conditions: more pronounced at higher pH values

CC[C@@H](c1cccc(O)c1)[C@@H](C)CN(C)C [Tapentadol, (1R,2R)-3-(3-dimethylamino-1-ethyl-2-methyl-propyl)-phenol]
antimicrobial properties: exhibits antimicrobial properties
